Experimental findings from patent US20230339981A1, “KRAS G12D MODULATING COMPOUNDS” (priority 2022, published 2023) are described below.

The target in one assay is GDP-loaded KRAS G12D (Homo sapiens (Human), UniProt P01116, G12D). Nature of the assay: KRAS G12D (GDP) biochemical assay (TR-FRET probe displacement). The class given is binding. Particulars: 2 hours. The gist of the method: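 TR-FRET probe displacement: 1:3 DMSO serial dilutions pre-incubated 30 min with GDP-bound KRAS G12D, followed by Eu-streptavidin/probe for 2 h at room temperature (Hepes pH 7.4, NaCl, MgCl2, Tween-20 buffer). IC50 defined as concentration halving TR-FRET ratio, from sigmoidal dose-response fit.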
Chain of GDP-loaded KRAS G12D (P01116-2 other isoform, or with tags, fused parts or gaps G12D): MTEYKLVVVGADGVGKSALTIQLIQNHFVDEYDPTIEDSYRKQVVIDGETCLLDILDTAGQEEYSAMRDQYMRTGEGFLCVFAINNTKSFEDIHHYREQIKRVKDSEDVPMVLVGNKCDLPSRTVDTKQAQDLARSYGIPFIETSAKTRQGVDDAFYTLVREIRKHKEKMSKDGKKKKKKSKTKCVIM
A general note: TR-FRET usually uses a lanthanide donor and a delayed reading to cut background.

Another assay has as its system GP2D (KRAS G12D) cells. Nature of the assay: 2D cell viability assay (CellTiter-Glo). The note with it: GP2d, 96 h, 4 days. The class given is cell-based. The gist of the method: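 Viability was read by CellTiter-Glo after 4 days at 37 °C of 2D culture of KRAS G12D GP2D cells (1000/well, RPMI, 10% FBS) on pre-spotted threefold compound dilutions. EC50 was fitted with a sigmoidal dose-response model as the point of half-maximal luminescence loss.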
Background: In ATP-based viability assays light output follows the ATP content of the culture.

For the next assay, the system named is AsPC-1 (KRAS G12D) cells. Nature of the assay: 3D cell viability assay (spheroids, CellTiter-Glo 3D). The note with it: Homo sapiens, ASPC1, 96 h, AsPC-1 cells, 3D spheroids, 4 days. The assay is classed as cell-based. The gist of the method: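 AsPC-1 cells (1000/well) in DMEM with 10% FBS formed spheroids over 3 days at 37 °C in ultra-low attachment plates, then were treated with 1:3 serial dilutions for 4 days. Viability read by CellTiter-Glo 3D luminescence; EC50 as concentration giving 50% signal decrease, sigmoidal fit.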

On to `C#Cc1c(F)ccc2cc(O)cc(-c3nc4c5c(nc(OC[C@@]67CCCN6C[C@H](F)C7)nc5c3F)N3C[C@@]5(C)CC[C@H](N5)[C@H]3CC4)c12` [Example 190, 5-ethynyl-6-fluoro-4-((5aR,6S,9R)-1-fluoro-12-(((2R,7aS)-2-fluorotetrahydro-1H-pyrrolizin-7a(5H)-yl)methoxy)-9-methyl-4,5,5a,6,7,8,9,10-octahydro-3,10a,11,13,14-pentaaza-6,9-methanonaphtho[1,8-ab]heptalen-2-yl)naphthalen-2-ol], for which the IC50 (usually the concentration that gives 50% inhibition) at GDP-loaded KRAS G12D worked out at 0.1 nM. In addition, the figures for the EC50 in the assay with GP2D (KRAS G12D) cells and in the assay with AsPC-1 (KRAS G12D) cells were 1.5 nM and 7.9 nM, respectively.
On the same counts, the results for `C#Cc1c(F)ccc2cccc(-c3nc4c5c(nc(OC[C@@]67CCCN6C[C@H](F)C7)nc5c3F)N3C[C@@]5(C)CC[C@H](N5)[C@H]3CC4)c12` [Example 191, (5aR,6S,9R)-2-(8-ethynyl-7-fluoronaphthalen-1-yl)-1-fluoro-12-(((2R,7aS)-2-fluorotetrahydro-1H-pyrrolizin-7a(5H)-yl)methoxy)-9-methyl-4,5,5a,6,7,8,9,10-octahydro-3,10a,11,13,14-pentaaza-6,9-methanonaphtho[1,8-ab]heptalene] are 2 nM, 39.8 nM and 110 nM.
